The text below walks through data of PubChem BioAssay (NCI).

This experiment deals with MDA-MB-468 breast. Put plainly: NCI anticancer screen, dose series, 48 h.

The structures appear in SMILES notation.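 Values below derive from 48-hour exposures of cells grown in 96-well plates, with endpoints linearly interpolated between the two concentrations bracketing the appropriate inhibition level. GI50 = concentration required for 50% inhibition of growth. TGI is the concentration that stops growth completely.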

For `N[C@@H](Cc1c[nH]c2ccccc12)C(=O)NC1CCN(C(=O)c2c[nH]c3ccccc23)CC1`, the GI50 is 54.2 µM and the TGI was > 100 µM.

For `C=C1[C@@H](C)[C@H]2[C@H](Cc3ccccc3)NC(=O)[C@]23OC(=O)/C=C/[C@H](O)CCC[C@@H](C)C/C=C/[C@H]3[C@@H]1O`, the GI50 was 1.86 µM and the TGI is > 100 µM.

For the compound `COCCn1cc(-c2csc(-c3c[nH]c4ccccc34)n2)c2cccnc21`, the GI50 is 0.974 µM and the TGI amounted to 6.68 µM.

For `COc1ccc(-n2c(SCc3cc(OC)c(OC)c(OC)c3)nc3ccc(C)cc3c2=O)c(OC)c1`, the GI50 was 3.16 µM and the TGI worked out at 9.38 µM.

For `C=C1C(=O)O[C@H]2[C@H]1CC/C(COC(=O)NCc1cc3ccccc3[nH]1)=C\CC[C@@]1(C)O[C@@H]21`, the GI50 was 1.06 µM and the TGI turned out to be 3.4 µM.

On to `O=C(/C=C/c1cccnc1)NCCCCC1CCN(C(=O)c2ccccc2)CC1`, for which the GI50 was 27.5 µM and the TGI was > 100 µM.

`CC(C)(C)N1CCC1C(N)=O` (stereo not drawn): the GI50 is > 100 µM and the TGI is > 100 µM.

For `N#Cc1c(C(=O)c2ccccc2)cnn1-c1ccccc1`, the GI50 was > 25 µM and the TGI is > 25 µM.

For the compound `OCc1cn(Cc2cccc(Cl)c2)c2ccccc12`, the GI50 was 0.0134 µM and the TGI came out at 0.0333 µM.

`COc1ccc(/C=C/C(=O)c2cc3c(N)c(C(=O)Nc4ccccc4Cl)sc3nc2C)cc1`: the GI50 was 0.279 µM and the TGI was 4.1 µM.

Take `Cc1ccc(C(=O)Nc2ccc(CN3CCN(C)CC3)c(C(F)(F)F)c2)cc1C#Cc1cnc(N)cc1C#N`: the GI50 was 0.399 µM and the TGI was 1.23 µM.

As for `Cc1c(C#N)cccc1-c1cc(-c2cn(Cc3cccc(C(C)(C)O)n3)nn2)nc(N)n1`, the GI50 was 7.58 µM and the TGI was 55.6 µM.

In the case of `CCCCn1c2cc(OCc3cn(-c4ccc(Cl)cc4)nn3)ccc2c2ccnc(C)c21`, the GI50 is 5.23 µM and the TGI was > 33.3 µM.

On to `c1ccc(Cc2nc3ccc(Nc4ncnc5ccccc45)cc3[nH]2)cc1`, for which the GI50 was 6.65 µM and the TGI was 24.3 µM.

In the case of `NC(=O)c1cnc(N[C@@H]2CCCC[C@@H]2N)nc1Nc1cccc(-n2nccn2)c1`, the GI50 was 3.27 µM and the TGI worked out at 11.5 µM.

Regarding `COc1ccc(-c2cc(-c3ccc(OC)c(OC)c3)nc(SCCCC(=O)NO)n2)cc1`, the GI50 is 1.18 µM and the TGI stood at 3.44 µM.

Take `C#Cc1cccc(Nc2ncnc3cc(OCCOC)c(OCCOC)cc23)c1`: the GI50 was 0.124 µM and the TGI was 2.81 µM.

In the case of `C(=N\Nc1ccccn1)/c1ccccn1`, the GI50 was 0.237 µM and the TGI stood at 0.748 µM.

With `COc1ccccc1-[n+]1cc(-c2ccc(-c3ccccc3)cc2)n2c1CCCCC2`, the TGI amounted to 0.838 µM.

Consider `Cc1ccc(C(CN(C)C)C(=O)c2ccccc2)cc1` (stereo not drawn), for which the GI50 is 1.32 µM and the TGI came out at 3.61 µM.

Turning to `CC(C)Oc1cc2c(cc1O)CC[C@@H]1[C@@H]2CC[C@]2(C)[C@@H](O)CC[C@@H]12`, the GI50 was 4.16 µM and the TGI was 25.6 µM.

Regarding `CN(C)CCCn1c2c(c3cnccc3c1=O)C(=O)c1ccccc1-2`, the GI50 was 0.352 µM and the TGI is 2.54 µM.

`Cc1cn(C2CC(F)C(CO)O2)c(=O)[nH]c1=O` (stereo not drawn): the GI50 was > 100 µM and the TGI was > 100 µM.

Regarding `CCN(CC)c1ccc(/C=C\c2cc(C)c3cc(C)ccc3n2)cc1`, the GI50 was 3.02 µM and the TGI was 20.3 µM.

As for `CC(=O)OC[C@H]1O[C@@H](n2ccc(=O)[nH]c2=O)[C@H](OC(C)=O)[C@@H]1OC(C)=O`, the GI50 was > 100 µM and the TGI was > 100 µM.

For `CC12CCC3C(CC=C4CC(O)CCC43C)C1C/C(=C\N1CCCC1)C2=O` (stereo not drawn), the GI50 was 51.2 µM and the TGI is > 100 µM.

Turning to `CCN(Cc1cccc(OC)c1)c1ccc(CO)c(Cl)c1`, the GI50 is 0.0174 µM and the TGI amounted to 0.0456 µM.

For the compound `Oc1ccc(/C=N\Nc2ccccn2)c(O)c1`, the GI50 was 2.43 µM and the TGI is 8.56 µM.

Regarding `Oc1ccc(Cc2ccc(O)c3ncccc23)c2cccnc12`, the GI50 is 0.278 µM and the TGI stood at 0.902 µM.

With `CC1=C([Se]CC(OC(=O)CC[Se]c2ccccc2)C(=O)NCCCCCC(=O)OCc2ccccc2)C(=O)c2ccccc2C1=O` (stereo not drawn), the GI50 was 1.93 µM and the TGI stood at 4.63 µM.

In the case of `C[C@]12CCC3[C@@H](C[C@@H]4SC(Nc5ccccc5)=N[C@@]45CC(=O)CC[C@]35C)[C@@H]1CCC2=O` (stereo partly drawn), the GI50 is 3.59 µM and the TGI came to 14.6 µM.

As to `C1CC[N-]CC1.C1CC[N-]CC1.C1CC[N-]CC1.C1CC[N-]CC1.[Cl][Rh][Cl]`, the GI50 was 2.17 µM and the TGI worked out at 15.3 µM.
